# Data from ChEMBL document CHEMBL3885881, “DrugMatrix”.
# Species: Rattus norvegicus
# Test: DrugMatrix - Regimen: Daily Repeat
# Assay type: toxicity, organism-based, Sprague-Dawley
# Parameters: regimen Daily Repeat, gender Male, age 6-8 weeks
# Conditions: in vivo, po, route oral GAVAGE, vehicle .5 % CMC; for ABSOLUTE BASOPHIL / ABSOLUTE EOSINOPHIL / ABSOLUTE LYMPHOCYTE / ABSOLUTE MONOCYTE / ABSOLUTE SEGMENTED NEUTROPHIL / BASOPHIL / EOSINOPHIL / ERYTHROCYTE COUNT / HEMATOCRIT / HEMOGLOBIN / LEUKOCYTE COUNT / LYMPHOCYTE / MEAN CORPUSCULAR HEMOGLOBIN / MEAN CORPUSCULAR HEMOGLOBIN CONCENTRATION / MEAN CORPUSCULAR VOLUME / MONOCYTE / NEUTROPHIL / NUCLEATED RED BLOOD CELLS / PLATELET COUNT: tissue Blood; for ALANINE AMINOTRANSFERASE / ALBUMIN / ALKALINE PHOSPHATASE / ASPARTATE AMINOTRANSFERASE / BLOOD UREA NITROGEN / CARBON DIOXIDE / CHLORIDE / CHOLESTEROL / CREATINE PHOSPHOKINASE / CREATININE / GLUCOSE / LACTATE DEHYDROGENASE / LIPASE / PHOSPHORUS / POTASSIUM / SODIUM / TOTAL BILIRUBIN / TOTAL PROTEIN / URIC ACID: tissue Plasma
# [1] = 3 mg/kg, 120 h, dose level Low, time 5 day
# [2] = 30 mg/kg, 72 h, dose level High, time 3 day
# [3] = 30 mg/kg, 120 h, dose level High, time 5 day
structure (smiles),measurement,setting,value
CC(=O)Nc1ccc2c(c1)Cc1ccccc1-2 [2-ACETYLAMINOFLUORENE],ABSOLUTE BASOPHIL,[1],0 CELLS/uL
same,ABSOLUTE EOSINOPHIL,[1],0 CELLS/uL
same,ABSOLUTE LYMPHOCYTE,[1],14012 CELLS/uL
same,ABSOLUTE MONOCYTE,[1],174.33 CELLS/uL
same,ABSOLUTE SEGMENTED NEUTROPHIL,[1],1113.67 CELLS/uL
same,BASOPHIL,[1],0%
same,EOSINOPHIL,[1],0%
same,ERYTHROCYTE COUNT,[1],5.69 x10E6/uL
same,HEMATOCRIT,[1],34.77%
same,HEMOGLOBIN,[1],13.53 G/DL
same,LEUKOCYTE COUNT,[1],15.3 x10E3/uL
same,LYMPHOCYTE,[1],92%
same,MEAN CORPUSCULAR HEMOGLOBIN,[1],23.73 pg
same,MEAN CORPUSCULAR HEMOGLOBIN CONCENTRATION,[1],39 G/DL
same,MEAN CORPUSCULAR VOLUME,[1],61 fL
same,MONOCYTE,[1],1%
same,NEUTROPHIL,[1],7%
same,NUCLEATED RED BLOOD CELLS,[1],0 /100WBC
same,PLATELET COUNT,[1],1174.67 x10E3/uL
same,ALANINE AMINOTRANSFERASE,[1],51 u/L
same,ALBUMIN,[1],4.03 G/DL
same,ALKALINE PHOSPHATASE,[1],355 u/L
same,ASPARTATE AMINOTRANSFERASE,[1],106.67 u/L
same,BLOOD UREA NITROGEN,[1],16.67 mg/dL
same,CARBON DIOXIDE,[1],29.67 mmol/L
same,CHLORIDE,[1],98 MEQ/L
same,CHOLESTEROL,[1],70.67 mg/dL
same,CREATINE PHOSPHOKINASE,[1],459.33 u/L
same,CREATININE,[1],0.16 mg/dL
same,GLUCOSE,[1],147 mg/dL
same,LACTATE DEHYDROGENASE,[1],770.33 u/L
same,LIPASE,[1],9.67 u/L
same,PHOSPHORUS,[1],11.37 mg/dL
same,POTASSIUM,[1],6.6 MEQ/L
same,SODIUM,[1],139.93 MEQ/L
same,TOTAL BILIRUBIN,[1],0.23 mg/dL
same,TOTAL PROTEIN,[1],5.9 G/DL
same,URIC ACID,[1],1.5 mg/dL
same,ABSOLUTE BASOPHIL,[2],0 CELLS/uL
same,ABSOLUTE EOSINOPHIL,[2],86 CELLS/uL
same,ABSOLUTE LYMPHOCYTE,[2],12836 CELLS/uL
same,ABSOLUTE MONOCYTE,[2],177.33 CELLS/uL
same,ABSOLUTE SEGMENTED NEUTROPHIL,[2],1034 CELLS/uL
same,BASOPHIL,[2],0%
same,EOSINOPHIL,[2],0.67%
same,ERYTHROCYTE COUNT,[2],5.86 x10E6/uL
same,HEMATOCRIT,[2],36.83%
same,HEMOGLOBIN,[2],14.6 G/DL
same,LEUKOCYTE COUNT,[2],14.13 x10E3/uL
same,LYMPHOCYTE,[2],90.67%
same,MEAN CORPUSCULAR HEMOGLOBIN,[2],24.9 pg
same,MEAN CORPUSCULAR HEMOGLOBIN CONCENTRATION,[2],39.6 G/DL
same,MEAN CORPUSCULAR VOLUME,[2],62.87 fL
same,MONOCYTE,[2],1.33%
same,NEUTROPHIL,[2],7.33%
same,NUCLEATED RED BLOOD CELLS,[2],0 /100WBC
same,PLATELET COUNT,[2],1279.33 x10E3/uL
same,ALANINE AMINOTRANSFERASE,[2],53.67 u/L
same,ALBUMIN,[2],3.73 G/DL
same,ALKALINE PHOSPHATASE,[2],368.67 u/L
same,ASPARTATE AMINOTRANSFERASE,[2],126.33 u/L
same,BLOOD UREA NITROGEN,[2],15 mg/dL
same,CARBON DIOXIDE,[2],22.67 mmol/L
same,CHLORIDE,[2],102 MEQ/L
same,CHOLESTEROL,[2],53 mg/dL
same,CREATINE PHOSPHOKINASE,[2],1143.67 u/L
same,CREATININE,[2],0.21 mg/dL
same,GLUCOSE,[2],158.67 mg/dL
same,LACTATE DEHYDROGENASE,[2],858.33 u/L
same,LIPASE,[2],10.33 u/L
same,PHOSPHORUS,[2],10.73 mg/dL
same,POTASSIUM,[2],6.07 MEQ/L
same,SODIUM,[2],142.33 MEQ/L
same,TOTAL BILIRUBIN,[2],0.2 mg/dL
same,TOTAL PROTEIN,[2],5.3 G/DL
same,URIC ACID,[2],1.47 mg/dL
same,ABSOLUTE BASOPHIL,[3],0 CELLS/uL
same,ABSOLUTE EOSINOPHIL,[3],0 CELLS/uL
same,ABSOLUTE LYMPHOCYTE,[3],17906.67 CELLS/uL
same,ABSOLUTE MONOCYTE,[3],125.33 CELLS/uL
same,ABSOLUTE SEGMENTED NEUTROPHIL,[3],368 CELLS/uL
same,BASOPHIL,[3],0%
same,EOSINOPHIL,[3],0%
same,ERYTHROCYTE COUNT,[3],6.43 x10E6/uL
same,HEMATOCRIT,[3],39.07%
same,HEMOGLOBIN,[3],15.4 G/DL
same,LEUKOCYTE COUNT,[3],18.4 x10E3/uL
same,LYMPHOCYTE,[3],97.33%
same,MEAN CORPUSCULAR HEMOGLOBIN,[3],24 pg
same,MEAN CORPUSCULAR HEMOGLOBIN CONCENTRATION,[3],39.43 G/DL
same,MEAN CORPUSCULAR VOLUME,[3],60.83 fL
same,MONOCYTE,[3],0.67%
same,NEUTROPHIL,[3],2%
same,NUCLEATED RED BLOOD CELLS,[3],0 /100WBC
same,PLATELET COUNT,[3],1336 x10E3/uL
same,ALANINE AMINOTRANSFERASE,[3],44 u/L
same,ALBUMIN,[3],3.8 G/DL
same,ALKALINE PHOSPHATASE,[3],317.33 u/L
same,ASPARTATE AMINOTRANSFERASE,[3],100.33 u/L
same,BLOOD UREA NITROGEN,[3],20.33 mg/dL
same,CARBON DIOXIDE,[3],27.33 mmol/L
same,CHLORIDE,[3],104.33 MEQ/L
same,CHOLESTEROL,[3],46.67 mg/dL
same,CREATINE PHOSPHOKINASE,[3],551.33 u/L
same,CREATININE,[3],0.22 mg/dL
same,GLUCOSE,[3],146.33 mg/dL
same,LACTATE DEHYDROGENASE,[3],501 u/L
same,LIPASE,[3],9.33 u/L
same,PHOSPHORUS,[3],11.33 mg/dL
same,POTASSIUM,[3],6.51 MEQ/L
same,SODIUM,[3],146.97 MEQ/L
same,TOTAL BILIRUBIN,[3],0.17 mg/dL
same,TOTAL PROTEIN,[3],5.4 G/DL
same,URIC ACID,[3],1.93 mg/dL
